According to PMC5289073, “Stable expression and functional characterisation of the diamondback moth ryanodine receptor G4946E variant conferring resistance to diamide insecticides” (Scientific Reports, 2015):
Like-named read-outs stand apart in the source and are kept apart here.

What was measured:
P. xylostella WT RyR [1] = molecular target: T1, P. xylostella WT RyR (Plutella xylostella, UniProt K7W8M2); test: Calcium fluorescence (Fluo8, FLIPR Tetra), Sf9 cells stably expressing wild-type RyR (Sf9-wtRyR); format: cell-based; conditions: for Intracellular calcium signal over time (Fluo8): caffeine 30 mM, flubendiamide-sulfoxide 1 μM, chlorantraniliprole 1 μM
Method: Single Sf9 cell clones stably expressing either the wild-type (Sf9-wtRyR) or the G4946E (Sf9-mRyR) RyR channel were isolated after a few cycles of clonal selection. […] This may be explained by compensatory calcium re-uptake mechanisms of the sarco-/endoplasmic reticulum, in particular the Ca^2+-ATPase (SERCA)[32][33].
Fluorescence of the calcium-Fluo8 complex was measured as a function of time.
Measurements of the integrated calcium signals as a function of the diamide concentration, gave characteristic dose-response curves, from which apparent EC50 concentrations for flubendiamide-sulfoxide and chlorantraniliprole were calculated (Fig. 6). These values represent the effector concentration causing half-maximal integrated calcium signals in the cells. […] It should be noted that the EC50 values are not only determined by the compound’s affinities to the RyR, but also by their availability at the intracellular target site as influenced by their physico-chemical properties.
(§1) Figure 6 Calcium transients in Sf9 cells stably expressing either the P. xylostella WT (●) or the modified (G4946E) RyR (▲) as a function of the diamide concentration. Calcium-dye (Fluo8) fluorescence was measured after (a) flubendiamide-sulfoxide or (b) chlorantraniliprole application as a function of time. The integrated fluorescence signals were plotted against the logarithm of the effector concentration. Data fitting and EC50 calculations were performed with the SigmaPlot v13 software package.
(§2) Cells were transfected as described above and subjected to selection with 300 μg ml^−1 zeocin by the dilution method, essentially as described in the manufacturer´s manual (Invitrogen). After a few successive rounds of clonal selection, zeocin-resistant cell clones were tested for functional RyR expression by calcium fluorescence measurements.
(§3) Calcium-dye fluorescence was measured with Fluo8-loaded cells on the FLIPR Tetra instrument (Molecular Devices) in the 384 microtiter plate format. 1.5 × 10[4] cells per well were treated with variable concentrations of effector compounds in a total volume of 80 μl Tyrode´s buffer containing 0.1% DMSO (final concentration) essentially following the established protocols provided with the Fluo8 No-Wash calcium assay kit (Molecular Devices). Excitation and emission wavelengths were set at 490 nm and 525 nm, respectively.

[2] = tested on: P. xylostella RyR (thoracic microsomal membranes); conditions: Philippine strain versus susceptible strain; cited from earlier work
P. xylostella G4946E RyR [3] = molecular target: T2, P. xylostella G4946E RyR (Plutella xylostella, UniProt K7W8M2, G4900E); test: Calcium fluorescence (Fluo8, FLIPR Tetra), Sf9 cells stably expressing G4946E RyR (Sf9-mRyR); format: cell-based
Method: as §1
The efficacy of both diamides was reduced dramatically in the Sf9-mRyR cells expressing the G4946E RyR.
as §2, §3

Plutella xylostella = conditions: cited from earlier work; for Resistance compared to susceptible strains: larvae collected from the Philippines and Thailand in 2012
Tuta absoluta = tested on: Tuta absoluta; parameters: method as in ref 39 = [39]; Roditakis E. et al. First report of Tuta absoluta resistance to diamide insecticides . J Pest Sci. 88 , 9 – 16 ( 2015 ).; conditions: T. absoluta population from Sicily (Italy), up; cited from earlier work
Adoxophyes honmai = tested on: Adoxophyes honmai; parameters: method as in ref 40 = [40]; Uchiyama T. & Ozawa A. Rapid development of resistance to diamide insecticides in the smaller tea tortrix, Adoxophyes honmai (Lepidoptera: Tortricidae), in the tea fields of Shizuoka Prefecture, Japan; conditions: cited from earlier work
[4] = tested on: P. xylostella ROTH WT RyR; test: Fura-2 AM calcium release, Sf9 cells transiently expressing ROTH WT RyR; format: cell-based, Plutella xylostella; conditions: 72 h post transfection, caffeine 30 mM, flubendiamide sulfoxide 30 μM, flubendiamide 10 μM
Method: (§4) Figure 3 Fluorescence ratios measured over time in a single calcium release experiment using Fura-2 AM in Sf9 cells transiently expressing (a) WT construct and (b) the G4946E variant 72 h post transfection.
(§5) Sf9 cells (Life technologies) were maintained in Sf-900 II SFM (Gibco-life technologies) serum free media without antibiotic in 30 ml suspension cultures (shaking at 115 rpm) at a constant temperature of 27 °C. Cells used for transfection were seeded into 60 mm cell culture dishes (Corning®), at 2 × 10[6] cells per dish in 3 ml of Sf-900 II SFM, and left to attach for 1 h. Cells were transfected using 3 μg of plasmid DNA, 15 μl Cellfectin II reagent (Life technologies) and 5 μl PLUS™ enhancer reagent (Life technologies) per dish, following the manufacturer’s protocol.
(§6) Fura 2-AM dye (Life technologies, CA, USA) was used for monitoring calcium release in Sf9 cells transfected with the P. xylostella RyR. Approximately 2.5 × 10^5 of un-transfected SF9 cells were allowed to attach to Poly-L-lysine coated coverslips (Sigma, MA, USA) for 1 h and then transfected using Cellfectin™ II. 24 h, 48 h, 72 h and 96 h post transfection the cells were loaded with […] of Fura 2-AM calcium sensitive dye. Cells were left to incubate at 27 °C for 45–60 minutes, followed by 3 washes with 500 μl of fresh un-supplemented Sf-900 II medium. […]

P. xylostella G4946E RyR [5] = molecular target: T2, P. xylostella G4946E RyR; format: cell-based; conditions: 72 h post transfection, caffeine 30 mM, flubendiamide 10 μM
Method: as §4, §5, §6

H. virescens RyR = conditions: cited from earlier work
P. xylostella WT RyR [6] = molecular target: T1, P. xylostella WT RyR; test: [3H] ryanodine binding, membranes of Sf9 cells transiently expressing ROTH WT RyR
Method: (§7) Apparent differences in Kd and Bmax with those reported in other studies could likely be explained by the different experimental conditions.
(§8) Figure 4 Tritium labelled ryanodine binding from Sf9 membrane preparations expressing P. xylostella WT and G4946E RyRs.
(§9) For membrane preparation, transfected cells were harvested 48 h post transfection using phosphate buffered saline (PBS), the cells counted and then re-suspended in a hypo-osmotic buffer (20 mM Tris, 1 mM EDTA pH 7.4) at a concentration of 2 × 10[6] cells per ml. The cells were then homogenised and centrifuged at 1,500 g for 15 min at 4 °C to remove cell debris. The supernatant was removed, centrifuged at 100,000 g for 1 h at 4 °C and the membrane pellet re-suspended in a 0.4 M sucrose, 20 mM HEPES solution (20 μl per 2 × 10[6] cells). Protein concentration was determined using Bradford reagent (Bio-Rad) following the manufacturer’s instructions, against Bovine Serum Albumin (BSA) standards.
(§10) Binding reactions were set up in a 96 well flat bottom microtiter plate in a total volume of 250 μl per well. […]

P. xylostella G4946E RyR [7] = molecular target: T2, P. xylostella G4946E RyR; test: [3H] ryanodine binding, membranes of Sf9 cells transiently expressing G4946E RyR
Method: as §7, §8, §9, §10

[8] = molecular target: rabbit skeletal muscle RyR; parameters: method as in PMID 11220363; conditions: native preparation of rabbit skeletal muscle RyR; cited from earlier work

| SMILES | Intracellular calcium signal over time (Fluo8) (P. xylostella WT RyR [1]; Sf9-wtRyR) | Resistance ratio of EC50 for ryanodine binding stimulation [2] [fold] | Resistance compared to susceptible strains (Plutella xylostella) | Resistance level (Tuta absoluta) | Resistance ratio (Adoxophyes honmai) [fold] | Calcium release response (Fura-2 fluorescence ratio) [4] | Calcium release response (Fura-2 fluorescence ratio) (P. xylostella G4946E RyR [5]) | further results |
| --- | --- | --- | --- | --- | --- | --- | --- | --- |
| Cn1c(=O)c2c(ncn2C)n(C)c1=O [caffeine] | increased rapidly to the maximum in less than one minute after application and then decreased to baseline levels |  |  |  |  |  |  |  |
| CNC(=O)c1cc(Cl)cc(C)c1NC(=O)c1cc(Br)nn1-c1ncccc1Cl [chlorantraniliprole] | increased intracellular calcium concentrations that persisted | 159 | over 200 fold | up to 2,414 fold | 77.2 |  |  | EC50 (P. xylostella G4946E RyR [3]): 3720 nM; Loss of effect on the RyR channel with G4946E substitution versus WT (P. xylostella G4946E RyR [3]; G4946E versus WT, from EC50 values): roughly two orders of magnitude; Resistance (Plutella xylostella; field populations from China with G4946E): 303–658 fold; EC50 (P. xylostella WT RyR [1]): 17 nM |
| Cc1cc(C(F)(C(F)(F)F)C(F)(F)F)ccc1NC(=O)c1cccc(I)c1C(=O)NC(C)(C)C[S+](C)[O-] (centres unmarked) [flubendiamide sulfoxide] | increased intracellular calcium concentrations that persisted |  |  |  |  | reversible activation of the calcium release | failed to induce any release of calcium | EC50 (P. xylostella G4946E RyR [3]; Sf9-mRyR, stable G4946E RyR, Fluo8, ± standard error printed, read-out: EC50 (half-maximal integrated calcium signal)): > 20000 nM; EC50 (P. xylostella WT RyR [1]; Sf9-wtRyR, stable WT RyR, Fluo8, ± standard error printed, read-out: EC50 (half-maximal integrated calcium signal)): 245 nM |
| Cc1cc(C(F)(C(F)(F)F)C(F)(F)F)ccc1NC(=O)c1cccc(I)c1C(=O)NC(C)(C)CS(C)(=O)=O [flubendiamide] |  | > 450 | over 200 fold | ≤ 1,742 fold | 105 | permanently increased Ca^2+ levels | did not show any calcium release |  |
| CC(C)[C@@]1(O)[C@@H](OC(=O)c2ccc[nH]2)[C@@]2(O)[C@@]3(C)C[C@]4(O)O[C@@]5([C@H](O)[C@@H](C)CC[C@]35O)[C@@]2(O)[C@@]14C [ryanodine] |  |  |  |  |  |  |  | Kd (H. virescens RyR; H. virescens native membrane preparations, different study): 13.9 ± 3.8 nM; Kd (H. virescens RyR; native preparation of H. virescens RyR): 3.82 ± 0.39 nM; Kd (P. xylostella WT RyR [6]): 12.9 ± 4.5 nM; Kd (P. xylostella G4946E RyR [7]): 14.7 ± 4.18 nM; Kd [8]: 2.04 ± 0.12 nM |
